Data on two molecules can be found in patent publication US9604945B2, “Sydnonimines-specific dopamine reuptake inhibitors and their use in treating dopamine related disorders” (priority 2007, dated 2017).

Each structure is given as a SMILES string.

The target of data set [1] is dopamine transporter (DAT) (Cavia porcellus, UniProt H0WCX4). In words: Dopamine transporter binding assay [3H]WIN 35,428. The settings on record: for inhibition at 10 µM: read-out: INH at 10 μM DAT. More on the design: species or system Guinea Pig. The procedure:
DAT inhibition activity was tested according to the procedure described by J. Javitz et al., Mol. Pharmacol., 26: 35-44 (1984). The test results for a number of representative compounds of the invention are reported hereinbelow.
I. Dopamine Transporter Binding Assay [3H]WIN 35,428
• This assay was carried out according to the procedure described by Javitch, J. J. et al., Mol. Pharmacol. 26: 35-44; 1984
A. Tissue Preparation (Prepare all Solutions on Ice) • 1. Thaw frozen brains from male Guinea Pigs (in assay buffer) and place in 50 mM TRIS-HCl (pH 7.4 at 25° C. with 120 mM NaCl). Isolate striatum. • 2. Use a Polytron to homogenize tissue in 20 vols. (w/v) of 50 mM Tris-HCl (pH 7.4 at 25° C. with 120 mM NaCl). • 3. Centrifuge homogenate at 48,400×g for approximately 10 minutes at 4° C. Discard supernatant. • 4. Wash pellet an additional time as described in steps 2 and 3. • 5. Store pellet on ice until needed for binding assay. • 6. Using a Polytron (setting 5; approximately 10 seconds) resuspend pellet in 50 mM Tris-HCl (pH 7.4 at 25° C. with 120 mM NaCl) to an initial concentration of 10 mg/ml (original wet weight), such that the final concentration is 8 mg/ml or 4.0 mg tissue/tube.
B. Binding Reaction • 1. Each tube receives the following components: • 50 ul drug or vehicle • 50 ul [3H]-WIN 35,428 • 400 ul tissue suspension. • 2. Initiate binding reaction with the addition of tissue, and incubate for 120 minutes at 0° C. (on ice). • 3. Terminate binding reaction by rapid filtration of tube contents onto untreated Whatman GF/C filters. • 4. Rinse the assay tubes once with ice cold 50 mM TRIS HCl (pH 7.4 at 25° C. with 120 mM NaCl, BSA), then rapidly rinse the filters with 6×1 mls/tube of the same wash buffer. • 5. Radioactivity trapped onto the filters is assessed using LSM machine. Let sit for 3 hours in scint cocktail.
C. Dopamine Tranasporter Binding Assay
Materials and Reagents • 1. [3H]-WIN 35-428 is diluted to a concentration of 60 nM in 50 mM TRIS HCl (pH 7.4 at 25° C. with 120 mM NaCl). Thus, the final ligand concentration is 6 nM. • 2. Non-specific binding is defined as that remaining in the presence of 1×10^-6 M GBR12909 (room temperature cabinet). GBR12909 MW=523.5 g/mol. Will solubilize in 4% DMSO (sonicate 15 minutes). Aliquots can be used (1E-3). • 3. The reference compound for the assay is GBR12909 and is diluted in 4% DMSO and is then run at the following final concentrations: 1×10^−10, 5×10^−10, 2×10^−9, 5×10^−9, 1×10^−8, 2×10^−8, 5×10^−8, 1×10^−7, 2×10^−7, 5×10^−7, 1×10^−6, 5×10^−6. • 4. The positive control GBR12909 and is run at the final concentrations of: 2×10-8, 1×10^−7, 5×10^−7M. • 5. The Kd for the receptor is 28.0 nM. Buffers

A short description of data set [2]: Tolerability and observable behavior changes. The class given is in vivo. The settings on record: for Well tolerated dose: in vivo; for Duration of observable changes in behavior: occurred in minutes.
A further data set has as its system mice. In words: Open Field testing. The class given is in vivo, mouse. The settings on record: for Anxiolytic effects in Open Field testing: FIGS. 9A-9D. The procedure:
Open Field testing was also performed. In carrying out this testing, individually housed male and female mice aged 8-12 weeks were used. The mice were maintained on a reverse L:D/12 p.m.: 12 a.m. cycle in a barrier facility. Food and water were available ad libitum. Testing occurred towards the end of the light cycle between 6-12 a.m. Mice were acclimated to the testing room for at least 30 minutes. The assay was performed in a custom-made Open Field Apparatus. Each chamber was a 50 by 50 cm square. The experiment was recorded and tracked by a tracking system obtained from Viewpoint.
The time and the path length in the center of the open field were determined. The center of the open field is defined as a 13.5×13.5 cm square in the geometric center of the arena. The percent of path in the center is calculated as
[formula] For each mouse, the total path length and path length for 60 minutes at 5 minute intervals was determined as a measure of locomotor activity. In addition, feces produced by each experimental animal during the test was counted. Each chamber was cleaned between individual mouse testing.
Path length for 60 minutes at 5 minute intervals was analyzed by repeat measures using SPSS software. All other parameters were compared using unpaired t-test (GraphPad Prism).

Chain of dopamine transporter (DAT) (H0WCX4 1-619): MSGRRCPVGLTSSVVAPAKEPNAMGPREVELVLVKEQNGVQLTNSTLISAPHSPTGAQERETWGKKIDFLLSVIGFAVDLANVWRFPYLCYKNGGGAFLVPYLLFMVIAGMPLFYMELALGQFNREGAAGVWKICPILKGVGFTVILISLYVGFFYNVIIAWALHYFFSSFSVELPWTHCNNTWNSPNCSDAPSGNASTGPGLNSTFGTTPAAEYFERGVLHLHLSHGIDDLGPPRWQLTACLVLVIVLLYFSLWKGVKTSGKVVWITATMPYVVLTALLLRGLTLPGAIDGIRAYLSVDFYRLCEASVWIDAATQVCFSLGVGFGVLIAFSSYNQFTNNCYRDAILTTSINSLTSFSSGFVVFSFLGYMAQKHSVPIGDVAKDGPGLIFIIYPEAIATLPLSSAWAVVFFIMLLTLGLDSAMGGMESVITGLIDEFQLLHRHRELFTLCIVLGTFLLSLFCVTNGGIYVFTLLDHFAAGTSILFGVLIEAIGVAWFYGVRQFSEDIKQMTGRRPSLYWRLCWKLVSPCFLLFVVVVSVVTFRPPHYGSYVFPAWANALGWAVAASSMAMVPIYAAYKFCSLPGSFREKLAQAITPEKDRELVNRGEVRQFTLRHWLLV

As usually defined, the Ki is a measure of affinity in units of concentration, obtained from inhibition or displacement. High values mean weaker binding, low ones tighter binding. Take `Cc1ccc(C[n+]2[cH-]/c(=N\C(=O)Nc3ccccc3)on2)cc1` [Example 3, N-phenylcarbamoyl-3-(p-methyl-benzyl)-sydnonimine]: in data set [1], the affinity corresponds to a Ki of 0.19 nM and the inhibition at 10 µM was determined as 94%. Moreover, in data set [2], the “Dosage above which subjects became lethargic” value is recorded as “above 125 kg/mg”, the Well tolerated dose entry is on record as “at least 200 mg/kg” and the “Duration of observable changes in behavior” value fell in the range of 2 to 3 h. Besides, the “Locomotor activity in open field testing” value in the data set on mice (10 and 90 mg/kg, FIG. 8) is “effective to reduce locomotor activity”. The “Anxiolytic effects in Open Field testing” value in the data set with mice (10 and 90 mg/kg) is “demonstrable anxiolytic effects”. Moreover, in the data set on mice (mouse, in vivo), the “Number of fecal boli in open field testing” value is on record as “no effect”.

As for `O=C(/N=c1\[cH-][n+](CCCc2ccccc2)no1)Nc1ccccc1` [Example 6, N-phenylcarbamoyl-3-(phenylpropyl)-sydnonimine], in data set [1], the affinity, expressed as Ki, was 25 nM and the inhibition at 10 µM is 96%. Moreover, in data set [2] (higher concentrations), the “Lethargic effect (compared with Example 3)” value is recorded as “this effect was reduced”. In addition, in data set [2], the Well tolerated dose result is on record as “at least 200 mg/kg” and the “Duration of observable changes in behavior” value fell in the range of 2 to 3 h. Further, the “Anxiolytic effects in Open Field testing” value in the data set on mice (10 and 90 mg/kg) is “induces anxiolytic effects”.
